Read-outs that look alike come from different tables or passages of the source.
Legend:
[1] = test system: E. multilocularis metacestode vesicles; assay: Phosphoglucose isomerase (PGI) release assay (damage-marker release) on metacestode vesicles; format: cell-based, Echinococcus multilocularis; settings: for PGI d5 (relative PGI release) / PGI d12 (relative PGI release): 10 μM; for PGI d5 (relative PGI release): 5 days; for PGI d12 (relative PGI release): 12 days
[2] = test system: E. multilocularis metacestode vesicles; assay: Metacestode vesicle viability assay (ATP, CellTiter-Glo); format: cell-based, Echinococcus multilocularis; settings: Echinococcus multilocularis, 288 h; for viability at 10 µM: 12 days, read-out: Viability d12 (relative viability)
Description: Viability was assessed after 12 days using the same metacestode vesicles as for the PGI release assay. Triton X-100 was added to each well to a final concentration of 0.1 %. Subsequently the metacestode vesicles were broken mechanically and 50 μL of the supernatant was mixed with 50 μL of CellTiter-Glo® buffer (Promega, Dübendorf, Switzerland). Measurements were performed on a HIDEX Sense microplate reader.

[3] = test system: E. multilocularis GL cells; assay: Germinal layer cell viability assay (CellTiter-Glo); format: cell-based, Echinococcus multilocularis
Description: The isolation of GL cells was conducted according to ([Kaethner et al., 2023]). Briefly, conditioned DMEM (cDMEM) was prepared prior to isolation. For the preparation of cDMEM, 1 × 10^6 RH cells and 10 × 10^6 RH cells incubated in DMEM supplemented with 10 % FBS, penicillin (100 U/mL), streptomycin (100 μg/mL) and tetracycline (5 μg/mL) for six or four days, respectively, at 37 °C under a humid, 5 % CO2 atmosphere. The supernatant of each was mixed 1:1 and sterile filtrated, resulting in cDMEM. Metacestode vesicles of at least 6 months of age were washed with PBS, incubated in distilled H2O for 2.5 min and subsequently mechanically disrupted. The resulting pellet was resuspended in 7 vol of pre-warmed 0.05 % Trypsin/0.02 % EDTA and incubated at 37 °C for 30 min. GL cells were extracted from the laminated layer by vigorous shaking followed by filtration through a 30 μm mesh (Sefar AG, Heiden, Switzerland) and separated from calcareous corpuscles by short centrifugation at 50×g for 30 s at RT. The isolated cells were centrifuged for 10 min at 600×g and RT and the pellet was resuspended in cDMEM. The cell suspension was diluted 1:100 in PBS to measure the OD600. An OD600 value of 0.1 of this dilution was defined as one arbitrary unit (AU) per μL of the undiluted cell suspension corresponding to 0.97 ± 0.11 μg of total protein for the GL cells as measured via Pierce™ bicinchoninic acid (BCA) Protein Assay Kit according to the manufacturer's protocol (Fisher Scientific AG, Reinach, Switzerland). 1′000 AU per 5 mL of cDMEM were cultured at 37 °C overnight under a humid nitrogen atmosphere. The next day, 2′000 AU of GL cells were combined and further cultured for 3 h at 37 °C under a humid nitrogen atmosphere before they were used for further experiments.
To assess effects of compounds on the cell viability of isolated E. multilocularis GL cells, the protocol was applied as previously described ([Kaethner et al., 2023]). In short, 15 AU of GL cells were distributed into each well of a black 384-well plate. Compounds dissolved in DMSO (alexidine, carbendazim, ESI-09, MMV1581545 and oxfendazole) were added to final concentrations ranging from 80 to 0.31 μM (1:2 serial dilution) and the cells were cultured for 5 days at 37 °C under a humid, microaerobic atmosphere (85 % N2, 10 % CO2, 5 % O2). DMSO with the respective concentration was used as a solvent control. Viability was measured using the CellTiter-Glo® kit. Luminescence was measured using a HIDEX Sense microplate reader. Measurements were done in quadruplicates and represented as relative viability of the DMSO controls. IC50 values were calculated in R applying the five parameter logistic model for three independent experiments ([Ritler et al., 2020]).

[4] = test system: E. multilocularis GL cells; assay: Seahorse mito cell stress test, oxygen consumption rate; format: cell-based, Echinococcus multilocularis; settings: titration in GL cells
Description: To measure mitochondrial respiration in E. multilocularis GL cells, Seahorse “mito cell stress test” was performed according to the manual for Seahorse XFp Extracellular Flux Analyzer (Agilent Technologies, Basel, Switzerland) with some adaptations ([Gu et al., 2021]; [Rufener et al., 2018]). Seahorse XFp 8-well plates were hydrated and incubated together with Seahorse XF calibrant solution at 37 °C in a non-CO2 incubator overnight the day before the actual experiment. […] Oligomycin was used at a final concentration of 1.5 μM. […] The experiment was repeated three times independently with two technical replicates.

[5] = test system: E. multilocularis metacestode vesicles; assay: Transmission electron microscopy of treated metacestode vesicles; format: cell-based, Echinococcus multilocularis; settings: 1 μM, 24 h
Description: To investigate induction of ultrastructural changes in E. multilocularis metacestode vesicles treated with ESI-09, transmission electron microscopy (TEM) was performed. Metacestode vesicles were treated with either 1 μM ESI-09 or the solvent control DMSO with subsequent incubation for 24 h at 37 °C under a humid, 5 % CO2 atmosphere. Processing and imaging was done as previously described ([Kaethner et al., 2023]).

cancer cell lines = test system: cancer cell lines; set-up: method as in Maeda et al., 2020; settings: ref Maeda et al., 2020; cited from earlier work
mice = test system: mice; set-up: method as in Almahariq et al., 2013; Maeda et al., 2020; settings: ref Almahariq et al., 2013, Maeda et al., 2020, cited from earlier work
[6] = confirmation screen, triplicates, mean
[7] = overview screen, singlets, relative to 0.1 % Triton X-100, DMSO subtracted

CC(C)(C)c1cc(C(=O)/C(C#N)=N/Nc2cccc(Cl)c2)no1 [ESI-09]
IC50 ([1]; Echinococcus multilocularis, 288 h, 12 days incubation, mean ± SD of three independent experiments): 6060 ± 3180 nM | PGI d5 (relative PGI release) [1, 6]: 6.08% | PGI d12 (relative PGI release) [1, 6]: 38.44% | detachment of the GL from the laminated layer, visible from concentration ([1]; microscopy pictures, 12 days incubation): ≥ 13.3 µM | PGI d5 (relative PGI release) [1, 7]: 33.0513% | PGI d12 (relative PGI release) [1, 7]: 64.0941% | viability at 10 µM [2, 6]: 10.7% | viability at 10 µM ([2]; overview screen, singlets, relative to DMSO control): 7.77% | IC50 ([2]; 12 days incubation, mean ± SD of three independent experiments): 2090 ± 560 nM | effect on GL cell viability (in words) ([3]; 80 to 0.31 μM, 5 days): highly effective | IC50 ([3]; Echinococcus multilocularis, 120 h, 5 days incubation, microaerobic, mean ± SD of three independent experiments): 2450 ± 860 nM | optimal (maximal) uncoupling concentration [4]: 2 µM | ultrastructural changes in metacestode vesicles (in words) [5]: induced distinct ultrastructural changes | ultrastructural changes in mitochondria (in words) [5]: no ultrastructural changes in mitochondria were seen | optimal uncoupling concentration in cancer cell lines (cancer cell lines): 2 µM | tolerability in mice (in words) (mice; daily 10 mg/kg intraperitoneal for 21 days): well-tolerated | tolerability in mice (in words) (mice; daily 50 mg/kg oral gavage up to 26 days): well-tolerated
